Results taken from patent US5527555A, “Brazzein sweetener” (Wisconsin Alumni Research Foundation, priority 1994, dated 1996).

Tests used:
[1] = sweetness by tasting, compared with sucrose solution; assay type: in vivo
[2] = Thermostability assay (incubation at 98° C., sweetness then tasted); assay type: physicochemical
Protocol: A thermostability assay was done (2 hours at 98° C.) at a concentration of 0.5 mg/ml Brazzein at the following different pH levels: 2 (Glycine-HCL buffer); 4 (Acetate buffer); 6 (Phosphate buffer); and 8 (Tris-HCL buffer). All of the buffers were in concentration of 50 mM. After the incubations, the samples were cooled down to room temperature and the sweetness of the samples was tasted with a comparison to the original protein solution.

With “Brazzein: sweet protein isolated from Pentadiplandra brazzeana Baillon, about 6,473 Daltons, amino acid sequence SEQ ID NO:4 (EDKCKKVYENYPVSKCQLANQCNYDCKLDKHARSGECFYDEKRNLQCICDYCEY)” as the substance, how does the “sweetness relative to sucrose” value ([1]; 2% solution compared with a 2% sucrose solution) read?
The value was “about 2,000 times”.

And the temporal sweetness response ([1]; taste, duration of sweetness)?
Its temporal sweetness response is “relatively long lasting sweetness response”.

What about the thermostability ([2]; 2 hours at 98° C., 0.5 mg/ml, pH 2, 4, 6 and 8 (50 mM buffers), sweetness tasted against original protein solution) of the same substance?
The thermostability was “excellent thermostability”.

And the “sweetness after heat incubation” value ([2]; two hours of incubation at 98° C.)?
Its value is “still tasted very sweet”.
